Legend:
blackgrass = experiment: Test B pre/postemergence blackgrass; type: in vivo, Alopecurus myosuroides
Method in brief: (§1)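 Herbicidal effect was estimated by eye on a ten-point control scale after plants spent twelve to sixteen days in a greenhouse following soil or foliar treatment. Foliar sprays targeted plants at one to four leaves; all doses were formulated in a non-phytotoxic solvent with surfactant.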

corn = experiment: Test B pre/postemergence corn; type: in vivo, Zea mays
Method in brief: as §1

soybean = experiment: Test B pre/postemergence soybean; type: in vivo, Glycine max
Method in brief: as §1

purple nutsedge = experiment: Test B pre/postemergence purple nutsedge; type: in vivo, Cyperus rotundus
Method in brief: as §1

crabgrass = experiment: Test B pre/postemergence crabgrass; type: in vivo, Digitaria sanguinalis
Method in brief: as §1

giant foxtail = experiment: Test B pre/postemergence giant foxtail; type: in vivo, Setaria faberii
Method in brief: as §1

sugar beet = experiment: Test B pre/postemergence sugar beet; type: in vivo, Beta vulgaris
Method in brief: as §1

surinam grass = experiment: Test B pre/postemergence surinam grass; type: in vivo, Brachiaria decumbens
Method in brief: as §1

bedstraw = experiment: Test B pre/postemergence bedstraw; type: in vivo, Galium aparine
Method in brief: as §1

wheat = experiment: Test B pre/postemergence wheat; type: in vivo, Triticum aestivum
Method in brief: as §1

cocklebur = experiment: Test B pre/postemergence cocklebur; type: in vivo, Xanthium strumarium
Method in brief: as §1

wild oat = experiment: Test B pre/postemergence wild oat; type: in vivo, Avena fatua
Method in brief: as §1

velvetleaf = experiment: Test B pre/postemergence velvetleaf; type: in vivo, Abutilon theophrasti
Method in brief: as §1

rape = experiment: Test B pre/postemergence rape; type: in vivo, Brassica napus
Method in brief: as §1

morningglory = experiment: Test B pre/postemergence morningglory; type: in vivo, Ipomoea hederacea
Method in brief: as §1

pigweed = experiment: Test B pre/postemergence pigweed; type: in vivo, Amaranthus retroflexus
Method in brief: as §1

[1] = Postemergence, Rate 62 g/ha, scale 0 to 10, 0 is no effect, 10 is complete control
[2] = Postemergence, Rate 125 g/ha, scale of 0 to 10 where 0 is no effect and 10 is complete control
[3] = Postemergence, Rate 250 g/ha, scale of 0 to 10, 0 is no effect, 10 is complete control
[4] = Preemergence, Rate 62 g/ha, scale of 0 to 10 where 0 is no effect and 10 is complete control
[5] = Preemergence, Rate 250 g/ha, scale 0 to 10 (0 no effect, 10 complete control)
[6] = Preemergence, Rate 500 g/ha, scale of 0 to 10 where 0 is no effect and 10 is complete control
[7] = Postemergence, Rate 500 g/ha, scale of 0 to 10 where 0 is no effect and 10 is complete control
[8] = Preemergence, Rate 125 g/ha, scale of 0 to 10 where 0 is no effect and 10 is complete control

For `CCCCn1c(=O)on(C(=O)N(c2ccc(F)cc2F)C(C)C)c1=O` [Compound 635], the “Plant response rating, Blackgrass” value (blackgrass; [1]) was 2, the “Plant response rating, Blackgrass” value (blackgrass; [2]) was 3 and the “Blackgrass plant response rating” value (blackgrass; [3]) was 7. For the same molecule, the “Blackgrass plant response rating” value (blackgrass; [4]) was 9, the “Plant response rating, Blackgrass” value (blackgrass; [5]) was 9 and the “Plant response rating, Blackgrass” value (blackgrass; [6]) was 8. For the same molecule, the “Plant response rating, Corn” value (corn; [1]) was 0, the “Plant response rating, Corn” value (corn; [2]) was 0 and the “Corn plant response rating” value (corn; [3]) was 0. For the same molecule, the “Plant response rating, Corn” value (corn; [7]) was 2, the “Corn plant response rating” value (corn; [4]) was 0 and the “Plant response rating, Corn” value (corn; [5]) was 2. The “Plant response rating, Corn” value (corn; [6]) was 8, the “Plant response rating, Soybean” value (soybean; [1]) was 3 and the “Plant response rating, Soybean” value (soybean; [2]) was 4. The “Soybean plant response rating” value (soybean; [3]) was 4, the “Soybean plant response rating” value (soybean; [4]) was 0 and the “Soybean plant response rating” value (soybean; [8]) was 0. For the same molecule, the “Plant response rating, Soybean” value (soybean; [5]) was 0, the “Plant response rating, Soybean” value (soybean; [6]) was 2 and the “Plant response rating, Nutsedge” value (purple nutsedge; [1]) was 0. For the same molecule, the “Plant response rating, Nutsedge” value (purple nutsedge; [2]) was 0, the “Nutsedge plant response rating” value (purple nutsedge; [4]) was 0 and the “Nutsedge plant response rating” value (purple nutsedge; [8]) was 0. For the same molecule, the “Plant response rating, Nutsedge” value (purple nutsedge; [5]) was 3, the “Plant response rating, Nutsedge” value (purple nutsedge; [6]) was 4 and the “Plant response rating, Crabgrass” value (crabgrass; [1]) was 4. The “Plant response rating, Crabgrass” value (crabgrass; [2]) was 9, the “Crabgrass plant response rating” value (crabgrass; [3]) was 8 and the “Plant response rating, Crabgrass” value (crabgrass; [7]) was 9. The “Crabgrass plant response rating” value (crabgrass; [4]) was 9, the “Crabgrass plant response rating” value (crabgrass; [8]) was 9 and the “Plant response rating, Crabgrass” value (crabgrass; [5]) was 9. For the same molecule, the “Plant response rating, Crabgrass” value (crabgrass; [6]) was 9, the “Plant response rating, Giant foxtail” value (giant foxtail; [1]) was 5 and the “Plant response rating, Giant foxtail” value (giant foxtail; [2]) was 8. For the same molecule, the “Giant foxtail plant response rating” value (giant foxtail; [3]) was 8, the “Plant response rating, Giant foxtail” value (giant foxtail; [7]) was 9 and the “Giant foxtail plant response rating” value (giant foxtail; [4]) was 9. For the same molecule, the “Giant foxtail plant response rating” value (giant foxtail; [8]) was 9, the “Plant response rating, Giant foxtail” value (giant foxtail; [5]) was 10 and the “Plant response rating, Giant foxtail” value (giant foxtail; [6]) was 10. For the same molecule, the “Plant response rating, Sugarbeets” value (sugar beet; [1]) was 3, the “Plant response rating, Sugarbeets” value (sugar beet; [2]) was 3 and the “Sugarbeets plant response rating” value (sugar beet; [3]) was 7. For the same molecule, the “Sugarbeets plant response rating” value (sugar beet; [4]) was 3, the “Sugarbeets plant response rating” value (sugar beet; [8]) was 5 and the “Plant response rating, Sugarbeets” value (sugar beet; [5]) was 8. For the same molecule, the “Plant response rating, Sugarbeets” value (sugar beet; [6]) was 9, the “Plant response rating, B. signalgrass” value (surinam grass; [1]) was 0 and the “Plant response rating, B. signalgrass” value (surinam grass; [2]) was 0. The “B. signalgrass plant response rating” value (surinam grass; [3]) was 2, the “Plant response rating, B. signalgrass” value (surinam grass; [7]) was 8 and the “B. signalgrass plant response rating” value (surinam grass; [4]) was 4. The “B. signalgrass plant response rating” value (surinam grass; [8]) was 8, the “Plant response rating, B. signalgrass” value (surinam grass; [5]) was 9 and the “Plant response rating, B. signalgrass” value (surinam grass; [6]) was 9. The “Plant response rating, Bedstraw” value (bedstraw; [1]) was 5, the “Plant response rating, Bedstraw” value (bedstraw; [2]) was 7 and the “Bedstraw plant response rating” value (bedstraw; [3]) was 9. The “Bedstraw plant response rating” value (bedstraw; [4]) was 9, the “Bedstraw plant response rating” value (bedstraw; [8]) was 8 and the “Plant response rating, Bedstraw” value (bedstraw; [5]) was 7. The “Plant response rating, Bedstraw” value (bedstraw; [6]) was 9, the “Plant response rating, Wheat” value (wheat; [1]) was 0 and the “Plant response rating, Wheat” value (wheat; [2]) was 0. For the same molecule, the “Wheat plant response rating” value (wheat; [3]) was 2, the “Wheat plant response rating” value (wheat; [4]) was 0 and the “Wheat plant response rating” value (wheat; [8]) was 0. For the same molecule, the “Plant response rating, Wheat” value (wheat; [5]) was 3, the “Plant response rating, Wheat” value (wheat; [6]) was 4 and the “Plant response rating, Cocklebur” value (cocklebur; [1]) was 2. The “Plant response rating, Cocklebur” value (cocklebur; [2]) was 2, the “Cocklebur plant response rating” value (cocklebur; [3]) was 3 and the “Plant response rating, Cocklebur” value (cocklebur; [7]) was 3. The “Cocklebur plant response rating” value (cocklebur; [4]) was 0, the “Cocklebur plant response rating” value (cocklebur; [8]) was 0 and the “Plant response rating, Cocklebur” value (cocklebur; [5]) was 0. For the same molecule, the “Plant response rating, Cocklebur” value (cocklebur; [6]) was 0, the “Plant response rating, Wild oats” value (wild oat; [1]) was 0 and the “Plant response rating, Wild oats” value (wild oat; [2]) was 0. The “Wild oats plant response rating” value (wild oat; [3]) was 5, the “Wild oats plant response rating” value (wild oat; [4]) was 2 and the “Wild oats plant response rating” value (wild oat; [8]) was 6. For the same molecule, the “Plant response rating, Wild oats” value (wild oat; [5]) was 9, the “Plant response rating, Wild oats” value (wild oat; [6]) was 9 and the “Plant response rating, Velvetleaf” value (velvetleaf; [1]) was 0. For the same molecule, the “Plant response rating, Velvetleaf” value (velvetleaf; [2]) was 0, the “Velvetleaf plant response rating” value (velvetleaf; [3]) was 2 and the “Velvetleaf plant response rating” value (velvetleaf; [4]) was 0. The “Plant response rating, Velvetleaf” value (velvetleaf; [5]) was 3, the “Plant response rating, Velvetleaf” value (velvetleaf; [6]) was 7 and the “Plant response rating, Rape” value (rape; [1]) was 2. The “Plant response rating, Rape” value (rape; [2]) was 5, the “Rape plant response rating” value (rape; [3]) was 7 and the “Plant response rating, Rape” value (rape; [7]) was 9. The “Rape plant response rating” value (rape; [4]) was 6, the “Rape plant response rating” value (rape; [8]) was 6 and the “Plant response rating, Rape” value (rape; [5]) was 7. For the same molecule, the “Plant response rating, Rape” value (rape; [6]) was 9, the “Plant response rating, Morningglory” value (morningglory; [1]) was 1 and the “Plant response rating, Morningglory” value (morningglory; [2]) was 4. The “Morningglory plant response rating” value (morningglory; [3]) was 4, the “Plant response rating, Morningglory” value (morningglory; [7]) was 7 and the “Morningglory plant response rating” value (morningglory; [4]) was 0. The “Morningglory plant response rating” value (morningglory; [8]) was 0, the “Plant response rating, Morningglory” value (morningglory; [5]) was 0 and the “Plant response rating, Morningglory” value (morningglory; [6]) was 6. The “Plant response rating, Redroot pigweed” value (pigweed; [1]) was 0, the “Plant response rating, Redroot pigweed” value (pigweed; [2]) was 0 and the “Redroot pigweed plant response rating” value (pigweed; [3]) was 3. For the same molecule, the “Redroot pigweed plant response rating” value (pigweed; [4]) was 10, the “Redroot pigweed plant response rating” value (pigweed; [8]) was 10 and the “Plant response rating, Redroot pigweed” value (pigweed; [5]) was 10. For the same molecule, the “Plant response rating, Redroot pigweed” value (pigweed; [6]) was 10.
